What was measured:
BxPC-3-vector cells = experiment: MTS based cell proliferation assay, BxPC-3-vector cells; parameters: species or system human; settings: BxPC-3-vector (BxPc3Vc, pMSCVneo empty vector), 4 days
Protocol: (§1) The inhibition of cell proliferation by library compounds was evaluated using the CellTiter 96 Non-Radioactive Cell Proliferation Assay following the protocol recommended by the manufacturer (Promega, Madison Wis.). Briefly, 2000 cells were seeded in each well of 96-well plates in 90 μl growth medium. Cells were allowed to attach overnight followed by addition of 10 μl of serially diluted compounds into the plates. After incubation for 4 days at 37° C. in a humidified incubator, 20 μl of a 20:1 mixture of (3-(4,5-dimethylthiazol-2-yl)-5-(3-carboxymethoxyphenyl)-2-(4-sulfophenyl)-2H-tetrazolium, inner salt (MTS, 2 mg/ml) and an electron coupling reagent, phenazine methosulfate (PMS, 0.92 mg/ml), was added to each well and incubated for 3 hours at 37° C. Absorbance was then measured using the Wallace Victor microplate reader at 490 nm (PerkinElmer, Wellesley, Mass.). Data were expressed as the percentage of cell growth calculated from the absorbance corrected for background absorbance. The surviving fraction of cells was determined by dividing the mean absorbance values of the treated samples by the mean absorbance values of the DMSO control.
(§2) After generating the isogenic cell lines for the DPC4 gene, Applicants then carried out a screening process using the cell lines with the aim to identify compounds that selectively kill cells with deficient DPC4 function. […]

HPDE6 (wild-type DPC4) = experiment: MTS cell proliferation assay, HPDE6 cells; type: cell-based; settings: Homo sapiens
Protocol: At the initial screening, compounds are tested in the MTS assay (or other cell proliferation assays such as SRB and Alamar Blue) against the cell line in which the specific gene is either deleted or suppressed by siRNA at a single dose of 10 μM (Toxicity Screening).
Compounds that show more than 50% cell growth inhibition at this concentration are selected to test against both isogenic cell lines (loss-of-function vs. wild type) at three different concentrations (10, 2 and 0.4 μM, Synthetic lethal Screening). Compounds that show a selectivity index ≧5 are selected for next round of screening—Selectivity Screening.
In the Selectivity Screening, compounds are tested against cancer cell lines with a specific loss-of-function mutation and normal cells (HPDE6 and FORF-TERT). Depending on their approximate potency assessed in the Synthetic lethal Screening, compounds are tested in a range of concentrations (8 concentrations per agent) in Selectivity Screening. Compounds that have nM IC50 values in loss-of-function cells and selectivity index values >10 are selected for phenotypic consequence tests and in vivo evaluations in animal models.
The inhibition of cell proliferation by library compounds was evaluated using the CellTiter 96 Non-Radioactive Cell Proliferation Assay following the protocol recommended by the manufacturer (Promega, Madison Wis.). […]

Forf = experiment: MTS cell proliferation assay, Forf normal fibroblasts; type: cell-based, human; settings: even at 200 μM
Protocol: as §1, §2

[1] = test system: pancreatic cancer cell lines; experiment: MTS cell proliferation assay, panel of pancreatic cancer cell lines; type: cell-based, human
Protocol: as §1
Applicants further examined the anti-proliferative activity of UA62001 in a panel of cell lines including normal cell lines which have wildtype DPC4 and pancreatic cancer lines with either wildtype DPC4 or inactivated DPC4 (Table 1). […]

BxPC-3 cells = experiment: Annexin V-FITC apoptosis assay; type: cell-based, human; settings: BxPC-3, 25 μM, 24 hours; untreated control 4.6%
Protocol: Cells were grown and treated with UA62001 as described in the cell cycle distribution analysis section above. Twenty-four hours after the treatment with the compound, cell media containing detached floating cells were transferred to 15 ml conical tubes; while the attached cells were trypsinized and collected in the same tube. Cells were then pelleted by centrifugation at 1500 rpm for 5 min, washed with PBS and then resuspended in 1×binding buffer at a concentration of 1×10^6 cells/ml. One hundred microliters (1×10^5 cells) were incubated with 5 μl of Annexin V-FITC (BD Pharmingen) and propidium iodide for 15 min in the dark at room temperature. After adding 400 μl of the 1× binding buffer, the cells were analyzed by flow cytometry (BD Immunocytometry systems). Data were acquired and analyzed using CellQuest software.

Compound: O=C1c2ccccc2C(=O)c2c1ccc1c(=O)n(-c3ccccc3)[nH]c21 [UA62001, 2-phenyl-1H-Naphth [2,3-g]indazole-3,6,11(2H)-trione]
- IC50 (BxPC-3-vector cells): 3.2 ± 0.45 µM
- IC50 (BxPC-3-vector cells; Homo sapiens, 96 h): 3 µM
- IC50 (HPDE6 (wild-type DPC4)): > 100 µM
- growth inhibition (Forf): little growth inhibition
- IC50 values in pancreatic cancer cell lines [1]: low μM
- percentage of cells in the M1 region (Annexin V staining) (BxPC-3 cells): 8.2%

Reference: patent publication US8394742B2, “Methods, compounds and compositions with genotype selective anticancer activity” (The Translation Genomics Research Institute, priority 2005, dated 2013)
